{
  "source": "patent US4001325A",
  "about": "“α-Chloroacetanilide selective herbicides” (Diamond Shamrock Corporation, priority 1973, dated 1977)",
  "key": {"[1]": {"system": "broadleaf species: pigweed, velvetleaf, morningglory", "experiment": "Greenhouse preemergence herbicide test, broadleaves", "assay_type": "in vivo", "details": "two weeks after treatment, 20160 min", "description": "(§1) To illustrate the preemergence herbicidal efficiency of the alkyl-substituted 2-chloro-N-propargylacetanilides of this invention, test formulations are prepared of each compound by mixing 20 ml of an acetone solution containing 0.125 g of chemical with 20 ml of water containing 0.01 g of Triton X-155 surfactant. The resultant formulations contain 3125 ppm of test compound, 50% by volume of acetone and 0.025% by weight of surfactant. Appropriate lower concentrations are obtained by diluting this formulation with surfactant-acetone solution so that the concentration of adjuvants is maintained at the original levels.\n(§2) Seeds of three broadleaf and three grass species are planted in soil contained in 10 inch × 8 inch × 3 inch aluminum pans filled with 1.5 inches of composted soil. The broadleaf species are pigweed (Amaranthus retroflexus), velvetleaf (Abutilon theophrasti), and morningglory (Ipomea coccinea); the grasses are red millet (Panicum milliacem), green foxtail (Setaria viridis) and Japanese millet (Echinochloa frumentacea).\n(§3) The seeded pans are sprayed so that the soil surface is uniformly covered with dilutions of the stock formulation providing dosage rates of the test compounds as shown in the following table.\n(§4) Two weeks after treatment, percent control (plant kill) at each dosage rate is estimated with results as follows: […]"}, "[2]": {"system": "grass species: red millet, green foxtail, Japanese millet", "experiment": "Greenhouse preemergence herbicide test, grasses", "assay_type": "in vivo, Panicum milliacem, Setaria viridis, Echinochloa frumentacea", "details": "pre-emergence, 336 h, two weeks after treatment", "description": "as §1, §2, §3, §4"}, "Soybeans": {"system": "Soybeans", "experiment": "Field preemergence test, phytotoxic effects on crop", "assay_type": "in vivo, var. Davis", "from_the_text": "Test plots of fertilized, light sandy soil containing 0.7% organic matter are sprayed uniformly with aqueous suspensions prepared from emulsifiable concentrates containing 12%, by weight, of the test chemicals diluted to provide dosage rates of the test compounds corresponding to 2.0, 1.0, 0.5, and 0.25 pound per acre (lb/A). The plots are then sown with seeds of the following crop plants: sweet corn, cotton (Coker 413) and soybeans, var. Davis. Seeds of the following weed plants are planted: redroot pigweed, prickly sida, common lambsquarter, goosegrass and giant foxtail.\nThree to four weeks after planting, percent control (plant kill) of the test plants is estimated, from a rating of 0 which denotes no injury to the plant up to 100 which denotes complete destruction. The herbicidal action of the test compounds obtained on the weed species is as follows:\nPhytotoxic effects observed on the crop species is estimated with results as follows: […]"}, "Morningglory": {"system": "Morningglory", "experiment": "Example 17 selective herbicidal activity in corn crop, weed kill", "assay_type": "in vivo, Ipomoea sp.", "details": "Ipomoea, 3-4 weeks after planting", "from_the_text": "(§5) This example illustrates the selective herbicidal activity of two of the presently preferred compounds of this invention against various weed species in a corn crop.\n(§6) Plots of light sandy soil, cleared of all weeds, are uniformly treated with aqueous dispersions prepared from an emulsifiable concentrate containing 2- 4 pounds of active ingredient per gallon. Diluted aqueous dispersions are applied as surface treatments at 2.0, 1.0, 0.5, and 0.25 pound of active ingredient per acre (lb/A).\n(§7) The treated test plots are sown to corn and with seeds of the following weed species:\n(§8) Three to four weeks after planting, the degree of damage to both the corn stands and the weed plants is assessed from a rating of 0% (no injury) to 100% (complete destruction)."}, "Goosegrass": {"system": "Goosegrass", "experiment": "Example 17 selective herbicidal activity in corn crop, weed kill", "assay_type": "in vivo, Eleusine indica", "details": "3-4 weeks after planting", "from_the_text": "as §5, §6, §7, §8"}, "Barnyardgrass": {"system": "Barnyardgrass", "experiment": "Example 18 preemergence herbicide test in different soils, % control", "assay_type": "in vivo, barnyard-grass", "details": "three weeks", "description": "(§9) To further illustrate the herbicidal activity of compounds of this invention in different types of soil as would be encountered in different crop growing localities, a preemergence herbicide test is conducted generally as outlined previously herein. Two light sandy soils are employed containing 0.7% and 1.8% organic matter (O.M.), respectively, along with two loam-type, heavier soils containing either 2.0% or 5-5.5% organic matter (O.M.).\n(§10) The test plots are all sprayed uniformly with formulations of the test compounds providing 2.0, 1.0, 0.5, and 0.25 pound of active chemical per acre (lb/A).\n(§11) Prior to treatment, the soil plots are sown to field corn, soybean, and grain sorghum crops and seeds of barnyard-grass and yellow foxtail.\nThree weeks after planting, the percent control of plant growth is rated from 0% (no injury) to 100% (total destruction)."}, "Corn": {"system": "Corn", "experiment": "Example 18 phytotoxic effects on crop stands in different soils", "assay_type": "in vivo, field corn", "description": "as §9, §10, §11\n(§12) Three weeks after planting, the percent control of plant growth is rated from 0% (no injury) to 100% (total destruction). The results obtained are as follows:\n(§13) Phytotoxic effects on the crop stands are similarly rated with the following results: […]"}, "Sorghum": {"system": "Sorghum", "experiment": "Example 18 phytotoxic effects on crop stands in different soils", "assay_type": "in vivo, grain sorghum", "description": "as §9, §10, §11, §12, §13"}, "[3]": {"details": "0.5 lb/A, Heavy Soil 5-5.5% O.M."}, "[4]": {"details": "0.5 lb/A, Medium Soil 2.0% O.M."}, "[5]": {"details": "1.0 lb/A, Heavy Soil 5-5.5% O.M."}, "[6]": {"details": "1.0 lb/A, Medium Soil 2.0% O.M."}, "[7]": {"details": "2.0 lb/A, Heavy Soil 5-5.5% O.M."}, "[8]": {"details": "2.0 lb/A, Medium Soil 2.0% O.M."}},
  "data": [
    {"smiles": "C#CCN(C(=O)CCl)c1c(CC)cccc1CC", "note": "[Example 9, 2-Chloro-2',6'-diethyl-N-propargylacetanilide]", "values": [
      {"measurement": "% Control, Broadleaves", "setting": "[1]; 0.062 lb/A", "value": 0, "unit": "%"},
      {"measurement": "% Control, Broadleaves", "setting": "[1]; 0.125 lb/A", "value": 0, "unit": "%"},
      {"measurement": "% Control, Broadleaves", "setting": "[1]; 0.25 lb/A", "value": 0, "unit": "%"},
      {"measurement": "% Control, Broadleaves", "setting": "[1]; 0.5 lb/A", "value": 35, "unit": "%"},
      {"measurement": "% Control, Broadleaves", "setting": "[1]; 1.0 lb/A", "value": 35, "unit": "%"},
      {"measurement": "pest or weed control at 69.4927 g/ha", "setting": "[2]; 0.062 lb/A", "value": 85, "unit": "%"},
      {"measurement": "pest or weed control at 140.106 g/ha", "setting": "[2]; 0.125 lb/A", "value": 95, "unit": "%"},
      {"measurement": "pest or weed control at 280.212 g/ha", "setting": "[2]; 0.25 lb/A", "value": 95, "unit": "%"},
      {"measurement": "pest or weed control at 560.425 g/ha", "setting": "[2]; 0.5 lb/A", "value": 90, "unit": "%"},
      {"measurement": "pest or weed control at 1120.85 g/ha", "setting": "[2]; 1.0 lb/A", "value": 95, "unit": "%"},
      {"measurement": "% Crop Kill, Soybeans", "setting": "Soybeans; 1.0 lb/A", "value": 0, "unit": "%"},
      {"measurement": "% Crop Kill, Soybeans", "setting": "Soybeans; 2.0 lb/A", "value": 0, "unit": "%"},
      {"measurement": "mortality at 280.212 g/ha", "setting": "Morningglory; 0.25 lb/A", "value": 0, "unit": "%"},
      {"measurement": "mortality at 560.425 g/ha", "setting": "Morningglory; 0.5 lb/A", "value": 0, "unit": "%"},
      {"measurement": "mortality at 1120.85 g/ha", "setting": "Morningglory; 1.0 lb/A", "value": 0, "unit": "%"},
      {"measurement": "mortality at 2241.7 g/ha", "setting": "Morningglory; 2.0 lb/A", "value": 3, "unit": "%"},
      {"measurement": "% Weed Kill, Goosegrass", "setting": "Goosegrass; 0.25 lb/A", "value": 87, "unit": "%"},
      {"measurement": "% Weed Kill, Goosegrass", "setting": "Goosegrass; 0.5 lb/A", "value": 100, "unit": "%"},
      {"measurement": "% Weed Kill, Goosegrass", "setting": "Goosegrass; 1.0 lb/A", "value": 100, "unit": "%"},
      {"measurement": "% Weed Kill, Goosegrass", "setting": "Goosegrass; 2.0 lb/A", "value": 100, "unit": "%"},
      {"measurement": "% Control, Barnyardgrass", "setting": "Barnyardgrass; [3]", "value": 90, "unit": "%"},
      {"measurement": "% Control, Barnyardgrass", "setting": "Barnyardgrass; [4]", "value": 95, "unit": "%"},
      {"measurement": "% Control, Barnyardgrass", "setting": "Barnyardgrass; 0.5 lb/A, Sand 0.7% O.M.", "value": 60, "unit": "%"},
      {"measurement": "% Control, Barnyardgrass", "setting": "Barnyardgrass; 0.5 lb/A, Sand 1.8% O.M.", "value": 85, "unit": "%"},
      {"measurement": "% Control, Barnyardgrass", "setting": "Barnyardgrass; [5]", "value": 98, "unit": "%"},
      {"measurement": "% Control, Barnyardgrass", "setting": "Barnyardgrass; [6]", "value": 100, "unit": "%"},
      {"measurement": "% Control, Barnyardgrass", "setting": "Barnyardgrass; 1.0 lb/A, Sand 0.7% O.M.", "value": 90, "unit": "%"},
      {"measurement": "% Control, Barnyardgrass", "setting": "Barnyardgrass; 1.0 lb/A, Sand 1.8% O.M.", "value": 90, "unit": "%"},
      {"measurement": "% Control, Barnyardgrass", "setting": "Barnyardgrass; [7]", "value": 100, "unit": "%"},
      {"measurement": "% Control, Barnyardgrass", "setting": "Barnyardgrass; [8]", "value": 100, "unit": "%"},
      {"measurement": "% Control, Barnyardgrass", "setting": "Barnyardgrass; 2.0 lb/A, Sand 0.7% O.M.", "value": 100, "unit": "%"},
      {"measurement": "% Control, Barnyardgrass", "setting": "Barnyardgrass; 2.0 lb/A, Sand 1.8% O.M.", "value": 100, "unit": "%"},
      {"measurement": "% Phytotoxicity, Corn", "setting": "Corn; [3]", "value": 0, "unit": "%"},
      {"measurement": "% Phytotoxicity, Corn", "setting": "Corn; [4]", "value": 0, "unit": "%"},
      {"measurement": "% Phytotoxicity, Corn", "setting": "Corn; 0.5 lb/A, Sand 0.7% O.M.", "value": 0, "unit": "%"},
      {"measurement": "% Phytotoxicity, Corn", "setting": "Corn; 0.5 lb/A, Sand 1.8% O.M.", "value": 0, "unit": "%"},
      {"measurement": "% Phytotoxicity, Corn", "setting": "Corn; [5]", "value": 0, "unit": "%"},
      {"measurement": "% Phytotoxicity, Corn", "setting": "Corn; [6]", "value": 0, "unit": "%"},
      {"measurement": "% Phytotoxicity, Corn", "setting": "Corn; 1.0 lb/A, Sand 0.7% O.M.", "value": 0, "unit": "%"},
      {"measurement": "% Phytotoxicity, Corn", "setting": "Corn; 1.0 lb/A, Sand 1.8% O.M.", "value": 0, "unit": "%"},
      {"measurement": "% Phytotoxicity, Corn", "setting": "Corn; [7]", "value": 10, "unit": "%"},
      {"measurement": "% Phytotoxicity, Corn", "setting": "Corn; [8]", "value": 10, "unit": "%"},
      {"measurement": "% Phytotoxicity, Corn", "setting": "Corn; 2.0 lb/A, Sand 0.7% O.M.", "value": 0, "unit": "%"},
      {"measurement": "% Phytotoxicity, Corn", "setting": "Corn; 2.0 lb/A, Sand 1.8% O.M.", "value": 0, "unit": "%"},
      {"measurement": "% Phytotoxicity, Sorghum", "setting": "Sorghum; [3]", "value": 35, "unit": "%"},
      {"measurement": "% Phytotoxicity, Sorghum", "setting": "Sorghum; [4]", "value": 40, "unit": "%"},
      {"measurement": "% Phytotoxicity, Sorghum", "setting": "Sorghum; 0.5 lb/A, Sand 0.7% O.M.", "value": 0, "unit": "%"},
      {"measurement": "% Phytotoxicity, Sorghum", "setting": "Sorghum; 0.5 lb/A, Sand 1.8% O.M.", "value": 10, "unit": "%"},
      {"measurement": "% Phytotoxicity, Sorghum", "setting": "Sorghum; [5]", "value": 75, "unit": "%"},
      {"measurement": "% Phytotoxicity, Sorghum", "setting": "Sorghum; [6]", "value": 55, "unit": "%"},
      {"measurement": "% Phytotoxicity, Sorghum", "setting": "Sorghum; 1.0 lb/A, Sand 0.7% O.M.", "value": 10, "unit": "%"},
      {"measurement": "% Phytotoxicity, Sorghum", "setting": "Sorghum; 1.0 lb/A, Sand 1.8% O.M.", "value": 30, "unit": "%"},
      {"measurement": "% Phytotoxicity, Sorghum", "setting": "Sorghum; [7]", "value": 99, "unit": "%"},
      {"measurement": "% Phytotoxicity, Sorghum", "setting": "Sorghum; [8]", "value": 95, "unit": "%"},
      {"measurement": "% Phytotoxicity, Sorghum", "setting": "Sorghum; 2.0 lb/A, Sand 0.7% O.M.", "value": 30, "unit": "%"},
      {"measurement": "% Phytotoxicity, Sorghum", "setting": "Sorghum; 2.0 lb/A, Sand 1.8% O.M.", "value": 70, "unit": "%"}
    ]}
  ]
}
